Literature values as cited in patent US20070225544A1, “APPARATUSES AND TECHNIQUES FOR BIOACTIVE DRUG DELIVERY IN THE PROSTATE GLAND” (priority 2006, published 2007).

How the values were obtained:
[1] = test system: benign prostatic hypertrophy (BPH); settings: in vivo

| Compound | Duration (relative duration of action of injectable corticosteroid agent) | Potency (relative potency of injectable corticosteroid agent) | decrease in urinary symptoms [1] | effective for up to ... in managing BPH [1] |
| --- | --- | --- | --- | --- |
| CC(=O)OCC(=O)[C@@]1(O)CC[C@H]2[C@@H]3CCC4=CC(=O)CC[C@]4(C)[C@H]3[C@@H](O)C[C@@]21C [Hydrocortisone acetate] | Short | Low |  |  |
| botulinum-toxin |  |  | 30% | up to 1 year |
